Here are results for 27 compounds from patent publication US20250333424A1, “ANTIVIRAL COMPOUNDS” (Gilead Sciences, Inc., priority 2024, published 2025).

This test deals with monocytic THP1 cells infected with HIV VSV-G pseudotyped GFP-NEF reporter virus. Put plainly: cells. The test is classed as cell-based. The settings on record: Human immunodeficiency virus 1, THP-1, 24 h.

`Cc1cc(/C=C/C#N)cc(C)c1Oc1nc(NC23CC(C#N)(C2)C3)nc2c(C)nn(C)c12` [Compound 121] yielded an EC50 of 53.2 nM.
With `COCCn1cc2c(Oc3c(C)cc(/C=C/C#N)cc3C)nc(NC34CC(C#N)(C3)C4)nc2n1` [Compound 123, 3-[[4-[4-[(E)-2-cyanovinyl]-2,6-dimethyl-phenoxy]-2-(2-methoxyethyl)pyrazolo[3,4-d]pyrimidin-6-yl]amino]bicyclo[1.1.1]pentane-1-carbonitrile] the figure was 59.8 nM; with `Cc1cc(/C=C/C#N)cc(C)c1Oc1nc(NC23CC(C#N)(C2)C3)nc2c1c(N)nn2C` [Compound 125, 3-[[3-amino-4-[4-[(E)-2-cyanovinyl]-2,6-dimethyl-phenoxy]-1-methyl-pyrazolo[3,4-d]pyrimidin-6-yl]amino]bicyclo[1.1.1]pentane-1-carbonitrile], 111 nM.
With `Cc1cc(/C=C/C#N)cc(C)c1Oc1nc(NC23CC(C#N)(C2)C3)nc2[nH]nc(C(C)C)c12` [Compound 126, 3-[[4-[4-[(E)-2-cyanovinyl]-2,6-dimethyl-phenoxy]-3-isopropyl-1H-pyrazolo[3,4-d]pyrimidin-6-yl]amino]bicyclo[1.1.1]pentane-1-carbonitrile] the figure was 119 nM; with `Cc1cc(/C=C/C#N)cc(C)c1Oc1nc(NC23CC(C#N)(C2)C3)nc2nn(C3CCOCC3)cc12` [Compound 127, 3-[[4-[4-[(E)-2-cyanovinyl]-2,6-dimethyl-phenoxy]-2-tetrahydropyran-4-yl-pyrazolo[3,4-d]pyrimidin-6-yl]amino]bicyclo[11.1.1]pentane-1-carbonitrile], 149 nM.
The compound `Cc1cc(/C=C/C#N)cc(C)c1Oc1nc(NC23CC(C#N)(C2)C3)nc2c1CNC2` [Compound 135, (E)-3-((4-(4-(2-cyanovinyl)-2,6-dimethylphenoxy)-6,7-dihydro-5H-pyrrolo[3,4-d]pyrimidin-2-yl)amino)bicyclo[1.1.1]pentane-1-carbonitrile] returned an EC50 of 275 nM.
With `Cc1cc(/C=C/C#N)cc(C)c1Oc1nc(NC23CC(C#N)(C2)C3)nc2c1C(C)NC2=O` (stereo not drawn) [Compound 136, (E)-3-((4-(4-(2-cyanovinyl)-2,6-dimethylphenoxy)-5-methyl-7-oxo-6,7-dihydro-5H-pyrrolo[3,4-d]pyrimidin-2-yl)amino)bicyclo[1.1.1]pentane-1-carbonitrile] the figure was 15 nM; with `Cc1cc(/C=C/C#N)cc(C)c1Oc1nc(NC23CC(C#N)(C2)C3)nc2c1[C@@H](C)NC2=O` [Compound 137, 3-[[(5R)-4-[4-[(E)-2-cyanovinyl]-2,6-dimethyl-phenoxy]-5-methyl-7-oxo-5,6-dihydropyrrolo[3,4-d]pyrimidin-2-yl]amino]bicyclo[1.1.1]pentane-1-carbonitrile], 6.9 nM; with `Cc1cc(/C=C/C#N)cc(C)c1Oc1nc(NC23CC(C#N)(C2)C3)nc2c1[C@H](C)NC2=O` [Compound 138, 3-[[(5S)-4-[4-[(E)-2-cyanovinyl]-2,6-dimethyl-phenoxy]-5-methyl-7-oxo-5,6-dihydropyrrolo[3,4-d]pyrimidin-2-yl]amino]bicyclo[1.1.1]pentane-1-carbonitrile], 18.3 nM.
`C=C1NC(=O)c2nc(NC34CC(C#N)(C3)C4)nc(Oc3c(C)cc(/C=C/C#N)cc3C)c21` [Compound 139, (E)-3-((4-(4-(2-cyanovinyl)-2,6-dimethylphenoxy)-5-methylene-7-oxo-6,7-dihydro-5H-pyrrolo[3,4-d]pyrimidin-2-yl)amino)bicyclo[1.1.1]pentane-1-carbonitrile] came in with an EC50 of 8.27 nM.
With `Cc1cc(/C=C/C#N)cc(C)c1Oc1nc(NC23CC(C#N)(C2)C3)nc2c1C(C)N(C)C2=O` (stereo not drawn) [Compound 140, (E)-3-((4-(4-(2-cyanovinyl)-2,6-dimethylphenoxy)-5,6-dimethyl-7-oxo-6,7-dihydro-5H-pyrrolo[3,4-d]pyrimidin-2-yl)amino)bicyclo[1.1.1]pentane-1-carbonitrile] the figure was 14.3 nM; with `Cc1cc(/C=C/C#N)cc(C)c1Oc1nc(NC23CC(C#N)(C2)C3)nc2c1C(C)(O)N(C)C2=O` (stereo not drawn) [Compound 141, (E)-3-((4-(4-(2-cyanovinyl)-2,6-dimethylphenoxy)-5-hydroxy-5,6-dimethyl-7-oxo-6,7-dihydro-5H-pyrrolo[3,4-d]pyrimidin-2-yl)amino)bicyclo[1.1.1]pentane-1-carbonitrile], 73 nM.
Compound `CCn1cc2c(Oc3c(C)cc(/C=C/C#N)cc3C)nc(NC34CC(C#N)(C3)C4)nc2n1` [Compound 143, 3-[[4-[4-[(E)-2-cyanovinyl]-2,6-dimethyl-phenoxy]-2-ethyl-pyrazolo[3,4-d]pyrimidin-6-yl]amino]bicyclo[1.1.1]pentane-1-carbonitrile] returned an EC50 of 58.5 nM.
For `Cc1cc(/C=C/C#N)cc(C)c1Oc1nc(NC23CC(C#N)(C2)C3)nc2nn(C3CC3)cc12` [Compound 144, (E)-3-((4-(4-(2-cyanovinyl)-2,6-dimethylphenoxy)-2-cyclopropyl-2H-pyrazolo[3,4-d]pyrimidin-6-yl)amino)bicyclo[1.1.1]pentane-1-carbonitrile], the response was half-maximal at 81 nM (EC50).
Compound `Cc1cc(/C=C/C#N)cc(C)c1Oc1nc(NC23CC(C#N)(C2)C3)nc2nn(CC3CC3)cc12` [Compound 145, (E)-3-((4-(4-(2-cyanovinyl)-2,6-dimethylphenoxy)-2-(cyclopropylmethyl)-2H-pyrazolo[3,4-d]pyrimidin-6-yl)amino)bicyclo[1.1.1]pentane-1-carbonitrile] returned an EC50 of 89.1 nM.
With `COc1ccc(CN2C(=O)C(C)(C)c3c(Oc4c(C)cc(/C=C/C#N)cc4C)nc(NC45CC(C#N)(C4)C5)nc32)cc1` [Compound 146, (E)-3-((4-(4-(2-cyanovinyl)-2,6-dimethylphenoxy)-7-(4-methoxybenzyl)-5,5-dimethyl-6-oxo-6,7-dihydro-5H-pyrrolo[2,3-d]pyrimidin-2-yl)amino)bicyclo[1.1.1]pentane-1-carbonitrile] the figure was 35.4 nM; with `Cc1cc(/C=C/C#N)cc(C)c1Oc1nc(NC23CC(C#N)(C2)C3)nc2c1CNC2=O` [Compound 153, (E)-3-((4-(4-(2-cyanovinyl)-2,6-dimethylphenoxy)-7-oxo-6,7-dihydro-5H-pyrrolo[3,4-d]pyrimidin-2-yl)amino)bicyclo[1.1.1]pentane-1-carbonitrile], 27.5 nM.
The compound `Cc1cc(/C=C/C#N)cc(C)c1Oc1nc(NC23CC(C#N)(C2)C3)nc2nc(C3CCOCC3)n(C(F)F)c12` [Compound 176, (E)-3-((6-(4-(2-cyanovinyl)-2,6-dimethylphenoxy)-7-(difluoromethyl)-8-(tetrahydro-2H-pyran-4-yl)-7H-purin-2-yl)amino)bicyclo[1.1.1]pentane-1-carbonitrile] displayed an EC50 of 45 nM.
With `Cc1cc(/C=C/C#N)cc(C)c1Oc1nc(NC23CC(C#N)(C2)C3)nc2nc(-c3ccn(C)n3)n(C(F)F)c12` [Compound 177, (E)-3-((6-(4-(2-cyanovinyl)-2,6-dimethylphenoxy)-7-(difluoromethyl)-8-(1-methyl-1H-pyrazol-3-yl)-7H-purin-2-yl)amino)bicyclo[1.1.1]pentane-1-carbonitrile] the figure was 45.3 nM; with `Cc1cc(/C=C/C#N)cc(C)c1Oc1nc(NC23CC(C#N)(C2)C3)nc2nc(C(F)F)n(C(F)F)c12` [Compound 178, (E)-3-((6-(4-(2-cyanovinyl)-2,6-dimethylphenoxy)-7,8-bis(difluoromethyl)-7H-purin-2-yl)amino)bicyclo[1.1.1]pentane-1-carbonitrile], 25.7 nM.
With `Cc1cc(/C=C/C#N)cc(C)c1Oc1nc(NC23CC(C#N)(C2)C3)nc2nc(C(C)O)n(C(F)F)c12` (stereo not drawn) [Compound 179, (E)-3-((6-(4-(2-cyanovinyl)-2,6-dimethylphenoxy)-7-(difluoromethyl)-8-(1-hydroxyethyl)-7H-purin-2-yl)amino)bicyclo[1.1.1]pentane-1-carbonitrile] the figure was 18.1 nM; with `Cc1cc(/C=C/C#N)cc(C)c1Oc1nc(NC23CC(C#N)(C2)C3)nc2c1[C@@H](C)N(C1CC1)C2=O` [Compound 180, (R,E)-3-((4-(4-(2-cyanovinyl)-2,6-dimethylphenoxy)-6-cyclopropyl-5-methyl-7-oxo-6,7-dihydro-5H-pyrrolo[3,4-d]pyrimidin-2-yl)amino)bicyclo[1.1.1]pentane-1-carbonitrile], 92.9 nM; with `Cc1cc(/C=C/C#N)cc(C)c1Oc1nc(NC23CC(C#N)(C2)C3)nc2c1[C@H](C)N(C1CC1)C2=O` [Compound 181, (S,E)-3-((4-(4-(2-cyanovinyl)-2,6-dimethylphenoxy)-6-cyclopropyl-5-methyl-7-oxo-6,7-dihydro-5H-pyrrolo[3,4-d]pyrimidin-2-yl)amino)bicyclo[1.1.1]pentane-1-carbonitrile], 20.5 nM.
With `Cc1cc(/C=C/C#N)cc(C)c1Oc1nc(NC23CC(C#N)(C2)C3)nc2nc3n(c12)CCO3` [Compound 184, (E)-3-((4-(4-(2-cyanovinyl)-2,6-dimethylphenoxy)-6,7-dihydrooxazolo[2,3-f]purin-2-yl)amino)bicyclo[1.1.1]pentane-1-carbonitrile] the figure was 36.5 nM.
`Cc1cc(/C=C/C#N)cc(C)c1Oc1nc(NC23CC(C#N)(C2)C3)nc2nc3n(c12)C[C@H](C)CO3` [Compound 185, (S,E)-3-((4-(4-(2-cyanovinyl)-2,6-dimethylphenoxy)-7-methyl-7,8-dihydro-6H-[1,3]oxazino[2,3-f]purin-2-yl)amino)bicyclo[1.1.1]pentane-1-carbonitrile] registered an EC50 of 22.3 nM.
With `Cc1cc(/C=C/C#N)cc(C)c1Oc1nc(NC23CC(C#N)(C2)C3)nc2nc3n(c12)C[C@@H](C)CO3` [Compound 186, (R,E)-3-((4-(4-(2-cyanovinyl)-2,6-dimethylphenoxy)-7-methyl-7,8-dihydro-6H-[1,3]oxazino[2,3-f]purin-2-yl)amino)bicyclo[1.1.1]pentane-1-carbonitrile] the figure was 92 nM.
As to `Cc1cc(/C=C/C#N)cc(C)c1Oc1nc(NC23CC(C#N)(C2)C3)nc2nc3n(c12)CC1(CC1)CO3` [Compound 187, (E)-3-((4′-(4-(2-cyanovinyl)-2,6-dimethylphenoxy)-6′H,8′H-spiro[cyclopropane-1,7′-[1,3]oxazino[2,3-f]purin]-2′-yl)amino)bicyclo[1.1.1]pentane-1-carbonitrile], a half-maximal response (EC50) required 36.5 nM.

Broadly, the EC50 is the concentration that produces a half-maximal response. A higher EC50 goes with a need for much substance.
